Tests used:
HEK293 cells = test: Cellular growth inhibition assay (CellTiter-Glo), HEK293 cells; assay type: cell-based; settings: Homo sapiens, 72 h, three days compound treatment, CellTiter-Glo 2.0, read-out: CTG HEK293 GI50
Summary of the method: (§1)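 GI50 derived by four-parameter regression of luminescence (CellTiter-Glo 2.0) at Day 0 and Day 3, normalized to DMSO wells. Cells (HeLa, HEK293; 500/well, DMEM plus 10% FBS) were dosed with compound dilutions 24 h post-seeding and exposed for three days at 37 °C.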

[1] = molecular target: T1, EGFR WT (amino acids 669-1011, Accession Number NP_005219.2) (Homo sapiens, UniProt P00533); test: KdELECT binding assay (Eurofins Discovery), EGFR WT
T1 construct: purchased Eurofins Discovery; host or cells: bacteria (E. coli, BL21-derived, T7 phage)
Summary of the method: (§2)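 Competition binding: WT kinase as T7 phage fusion from E. coli, T790M/L858R produced in HEK-293 and DNA-tagged, incubated 1 h at room temperature with immobilized ligand beads and compound (11-point 3-fold series, 0.9% DMSO). Bead-bound kinase eluted and quantified by qPCR to derive Kd.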

[2] = molecular target: T2, full-length CDK9 (amino acids 1-372; Accession Number NP_001252.1) (Homo sapiens, UniProt P50750); test: KdELECT binding assay, CDK9
T2 construct: full-length CDK9 (amino acids 1-372); purchased; host or cells: bacteria (E. coli, BL21-derived, T7 phage)
Procedure: Exemplary compounds were tested for ability to bind to full-length CDK9 (amino acids 1-372; Accession Number NP_001252.1) expressed from bacteria. Compounds were tested using a KdELECT assay.
Kinase-tagged T7 phage strains were prepared in an E. coli host derived from the BL21 strain. E. coli were grown to log-phase and infected with T7 phage and incubated with shaking at 32° C. until lysis. The lysates were centrifuged and filtered to remove cell debris. The remaining kinases were produced in HEK-293 cells and subsequently tagged with DNA for qPCR detection. Streptavidin-coated magnetic beads were treated with biotinylated small molecule ligands for 30 minutes at room temperature to generate affinity resins for kinase assays. The liganded beads were blocked with excess biotin and washed with blocking buffer (SeaBlock (Pierce), 1% BSA, 0.05% Tween 20, 1 mM DTT) to remove unbound ligand and to reduce non-specific binding. Binding reactions were assembled by combining kinases, liganded affinity beads, and test compounds in 1× binding buffer (20% SeaBlock, 0.17×PBS, 0.05% Tween 20, 6 mM DTT). Test compounds were prepared as 111× stocks in 100% DMSO. Kd values were determined using an 11-point 3-fold compound dilution series with three DMSO control points. All compounds for Kd measurements are distributed by acoustic transfer (non-contact dispensing) in 100% DMSO. The compounds were then diluted directly into the assays such that the final concentration of DMSO was 0.9%. All reactions performed in polypropylene 384-well plate. Each was a final volume of 0.02 mL. The assay plates were incubated at room temperature with shaking for 1 hour and the affinity beads were washed with wash buffer (1×PBS, 0.05% Tween 20). The beads were then re-suspended in elution buffer (1×PBS, 0.05% Tween 20, 0.5 μM nonbiotinylated affinity ligand) and incubated at room temperature with shaking for 30 minutes. The kinase concentration in the eluates was measured by qPCR.

EGFR = molecular target: T3, EGFR (Homo sapiens, UniProt P00533); test: KdELECT binding assay, EGFR
T3 construct: purchased
Summary of the method: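 Competition binding: DNA- or T7 phage-tagged EGFR was incubated 1 h at room temperature with immobilized ligand beads and an 11-point 3-fold compound series (0.9% DMSO final). Bead-bound kinase was eluted and quantified by qPCR to derive Kd.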

HeLa cells = test: Cellular growth inhibition assay (CellTiter-Glo), HeLa cells; assay type: cell-based; settings: Homo sapiens, 72 h, three days compound treatment, CellTiter-Glo 2.0, read-out: CTG HELA GI50
Summary of the method: as §1

[3] = molecular target: T4, EGFR T790M, L858R (amino acids 669-1011 Accession Number NP_005219.2) (Homo sapiens, UniProt P00533, L858R/T790M); test: KdELECT binding assay (Eurofins Discovery), EGFR T790M, L858R; settings: read-out: EGFR DM Kd
T4 construct: purchased Eurofins Discovery; host or cells: mammalian cells (HEK-293)
Summary of the method: as §2

KRAS G12C = molecular target: T5, KRAS G12C (Homo sapiens, UniProt P01116, G12C); test: KRAS G12C nucleotide exchange assay (SOS1 mediated, HTRF); assay type: biochemical; settings: 1 hr pre-incubation at RT, read-out: IC50 (inhibition of KRas G12C)
T5 construct: Kras (aa 2-169), GST; purchased Reaction Biology Corporation (RBC)
Summary of the method: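 HTRF nucleotide exchange using KRAS G12C mixed with anti-GST Tb antibody and pre-incubated with compound for 1 h at RT. Exchange was started with SOS1 plus labelled GTP. Compounds ran as 10-point, 3-fold dilutions from 10 μM, with no-SOS1 or top concentration as blank and IC50 from a variable-slope sigmoidal fit.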

T3 sequence (P00533 25-1210): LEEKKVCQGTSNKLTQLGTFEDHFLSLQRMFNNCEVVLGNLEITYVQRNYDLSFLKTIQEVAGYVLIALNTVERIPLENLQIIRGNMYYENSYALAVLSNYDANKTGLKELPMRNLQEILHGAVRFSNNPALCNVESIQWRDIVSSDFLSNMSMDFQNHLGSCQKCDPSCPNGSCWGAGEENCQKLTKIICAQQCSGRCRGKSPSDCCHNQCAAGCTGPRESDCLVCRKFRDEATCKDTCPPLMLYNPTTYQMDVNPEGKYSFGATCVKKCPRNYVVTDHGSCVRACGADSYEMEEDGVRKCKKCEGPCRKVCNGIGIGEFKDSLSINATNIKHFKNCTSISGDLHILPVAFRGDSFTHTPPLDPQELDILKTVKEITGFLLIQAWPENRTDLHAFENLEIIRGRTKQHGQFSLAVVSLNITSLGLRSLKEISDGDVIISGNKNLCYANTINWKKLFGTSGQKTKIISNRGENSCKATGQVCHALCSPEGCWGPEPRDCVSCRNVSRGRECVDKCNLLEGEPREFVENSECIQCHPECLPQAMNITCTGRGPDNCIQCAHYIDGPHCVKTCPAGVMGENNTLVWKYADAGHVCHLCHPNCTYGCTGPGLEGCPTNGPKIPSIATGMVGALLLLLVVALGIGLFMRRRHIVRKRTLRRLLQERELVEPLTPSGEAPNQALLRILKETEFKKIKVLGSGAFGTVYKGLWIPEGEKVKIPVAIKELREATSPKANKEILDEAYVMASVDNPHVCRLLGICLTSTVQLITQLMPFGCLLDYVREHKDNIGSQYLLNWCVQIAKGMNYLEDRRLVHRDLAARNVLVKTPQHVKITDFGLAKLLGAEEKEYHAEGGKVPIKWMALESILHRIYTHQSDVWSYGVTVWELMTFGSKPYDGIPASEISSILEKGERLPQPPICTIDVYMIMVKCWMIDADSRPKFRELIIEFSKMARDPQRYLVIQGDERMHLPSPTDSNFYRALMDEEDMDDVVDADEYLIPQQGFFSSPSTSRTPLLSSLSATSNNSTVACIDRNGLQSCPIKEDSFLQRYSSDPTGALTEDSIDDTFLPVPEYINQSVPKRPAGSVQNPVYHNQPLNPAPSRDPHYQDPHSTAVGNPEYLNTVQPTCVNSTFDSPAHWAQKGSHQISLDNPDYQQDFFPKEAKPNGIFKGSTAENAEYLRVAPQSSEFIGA
T1 sequence (P00533 669-1011): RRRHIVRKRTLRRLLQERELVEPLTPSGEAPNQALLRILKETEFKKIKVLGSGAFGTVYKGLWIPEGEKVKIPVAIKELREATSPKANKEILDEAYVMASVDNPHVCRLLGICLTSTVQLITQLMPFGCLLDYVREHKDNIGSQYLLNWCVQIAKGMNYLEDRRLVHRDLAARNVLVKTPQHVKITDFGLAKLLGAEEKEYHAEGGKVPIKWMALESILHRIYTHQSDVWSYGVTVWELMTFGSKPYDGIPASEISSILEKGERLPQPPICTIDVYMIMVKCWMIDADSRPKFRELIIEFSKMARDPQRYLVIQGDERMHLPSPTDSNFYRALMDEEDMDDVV
T2 sequence (P50750 whole entry, the tested form may be a part): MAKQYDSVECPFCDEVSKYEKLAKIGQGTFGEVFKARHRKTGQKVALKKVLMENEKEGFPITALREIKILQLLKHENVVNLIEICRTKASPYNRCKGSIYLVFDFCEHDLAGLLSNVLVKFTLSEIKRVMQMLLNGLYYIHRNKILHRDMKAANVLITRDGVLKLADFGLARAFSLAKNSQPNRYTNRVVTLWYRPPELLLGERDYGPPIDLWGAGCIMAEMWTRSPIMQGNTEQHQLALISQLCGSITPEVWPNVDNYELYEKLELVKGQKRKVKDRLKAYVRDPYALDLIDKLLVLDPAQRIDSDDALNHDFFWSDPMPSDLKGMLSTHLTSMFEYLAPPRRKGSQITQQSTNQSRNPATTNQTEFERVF
T5 sequence (P01116 2-169 isoform P01116-2 G12C): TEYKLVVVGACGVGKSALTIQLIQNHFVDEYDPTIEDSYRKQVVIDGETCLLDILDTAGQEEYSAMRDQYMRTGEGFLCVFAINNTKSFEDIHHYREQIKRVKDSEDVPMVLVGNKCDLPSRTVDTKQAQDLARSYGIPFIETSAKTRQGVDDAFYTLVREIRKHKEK
T4 sequence (P00533 669-1011 T790M/L858R): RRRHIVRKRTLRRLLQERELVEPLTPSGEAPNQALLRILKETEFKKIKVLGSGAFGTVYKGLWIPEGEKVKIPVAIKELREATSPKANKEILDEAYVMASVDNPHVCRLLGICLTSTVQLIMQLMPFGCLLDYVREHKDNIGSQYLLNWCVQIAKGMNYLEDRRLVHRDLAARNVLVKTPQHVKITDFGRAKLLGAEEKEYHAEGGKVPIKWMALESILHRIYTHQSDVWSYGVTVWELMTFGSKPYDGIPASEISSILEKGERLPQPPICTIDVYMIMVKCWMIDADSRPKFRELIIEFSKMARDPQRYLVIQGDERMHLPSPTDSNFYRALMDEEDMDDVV

SMILES	GI50 (HEK293 cells)	Kd [1]	Kd [2]	Kd (EGFR)	GI50 (HeLa cells)	Kd [3]	IC50 (KRAS G12C)
C=CC(=O)N[C@@H]1CN(c2nc(Nc3cn(CCOCCOCCOCCOCCOCCOCCNS(=O)(=O)c4ccc(Nc5ncc(Br)c(Nc6cccc(F)c6C(N)=O)n5)cc4)nc3OC)c3ncn(C)c3n2)C[C@H]1F [Compound I-143, 2-[[5-bromo-2-[4-[2-[2-[2-[2-[2-[2-[2-[4-[[2-[(3R,4R)-3-fluoro-4-(prop-2-enoylamino)pyrrolidin-1-yl]-9-methyl-purin-6-yl]amino]-3-methoxy-pyrazol-1-yl]ethoxy]ethoxy]ethoxy]ethoxy]ethoxy]ethoxy]ethylsulfamoyl]anilino]pyrimidin-4-yl]amino]-6-fluoro-benzamide]	> 5000 nM	< 50 nM	500 to 2500 nM	< 50 nM	> 5000 nM	< 50 nM	–
C=CC(=O)Nc1cc(Nc2nccc(-c3cn(C)c4ccccc34)n2)c(OC)cc1N(C)CCN(C)CCOCCOCCNS(=O)(=O)c1ccc(Nc2ncc(Br)c(Nc3cccc(F)c3C(N)=O)n2)cc1 [Compound I-33, 2-[[5-bromo-2-[4-[2-[2-[2-[2-[5-methoxy-N-methyl-4-[[4-(1-methylindol-3-yl)pyrimidin-2-yl]amino]-2-(prop-2-enoylamino)anilino]ethyl-methyl-amino]ethoxy]ethoxy]ethyl-sulfamoyl]anilino]pyrimidin-4-yl]amino]-6-fluoro-benzamide]	–	50 to 500 nM	500 to 2500 nM	< 50 nM	–	< 50 nM	–
C=CC(=O)Nc1cc(Nc2nccc(-c3cn(C)c4ccccc34)n2)c(OC)cc1N(C)CCN(C)CCOCCOCCOCCOCCOc1ccc(CNc2cc(N3CCCC[C@H]3CCO)nc3c(CC)cnn23)cn1 [Compound I-132]	< 500 nM	50 to 500 nM	< 50 nM	50 to 500 nM	< 500 nM	< 50 nM	–
C=CC(=O)N[C@@H]1CN(c2nc(Nc3cn(CCOCCOCCOCCOCCNS(=O)(=O)c4ccc(Nc5ncc(Br)c(Nc6cccc(F)c6C(N)=O)n5)cc4)nc3OC)c3ncn(C)c3n2)C[C@H]1F [Compound I-138, 2-[[5-bromo-2-[4-[2-[2-[2-[2-[2-[4-[[2-[(3R,4R)-3-fluoro-4-(prop-2-enoylamino)pyrrolidin-1-yl]-9-methyl-purin-6-yl]amino]-3-methoxy-pyrazol-1-yl]ethoxy]ethoxy]ethoxy]ethoxy]ethylsulfamoyl]anilino]pyrimidin-4-yl]amino]-6-fluoro-benzamide]	> 5000 nM	< 50 nM	500 to 2500 nM	< 50 nM	> 5000 nM	< 50 nM	–
CCc1cnn2c(NCc3ccc(OCCN(C)C/C=C/C(=O)N4CCN(c5nc(OC[C@@H]6CCCN6C)nc6c5CCN(c5cccc7cccc(Cl)c57)C6)C[C@@H]4CC#N)nc3)cc(N3CCCC[C@H]3CCO)nc12 [Compound I-91, 2-[(2S)-4-[7-(8-chloro-1-naphthyl)-2-[[(2S)-1-methylpyrrolidin-2-yl]methoxy]-6,8-dihydro-5H-pyrido[3,4-d]pyrimidin-4-yl]-1-[(E)-4-[2-[[5-[[[3-ethyl-5-[(2S)-2-(2-hydroxyethyl)-1-piperidyl]pyrazolo [1,5-a]pyrimidin-7-yl]amino]methyl]-2-pyridyl]oxy]ethyl-methyl-amino]but-2-enoyl]piperazin-2-yl]acetonitrile]	< 500 nM	–	–	–	< 500 nM	–	< 100 nM
CCc1cnn2c(NCc3ccc(OCCOCCOCCN(C)C/C=C/C(=O)N4CCN(c5nc(OC[C@@H]6CCCN6C)nc6c5CCN(c5cccc7cccc(Cl)c57)C6)C[C@@H]4CC#N)nc3)cc(N3CCCC[C@H]3CCO)nc12 [Compound I-89]	500 to 1500 nM	–	–	–	< 500 nM	–	< 100 nM
C=C(F)C(=O)N1CCN(c2nc(OC[C@@H]3CCCN3CCCOCCOCCOCCOCCN(C)C(=O)N3N=C(c4cc(F)ccc4F)S[C@@]3(CCCN)c3ccccc3)nc3c2CCN(c2cccc4cccc(Cl)c24)C3)C[C@@H]1CC#N [Compound I-98, 2-(3-aminopropyl)-N-[2-[2-[2-[2-[3-[(2S)-2-[[7-(8-chloro-1-naphthyl)-4-[(3S)-3-(cyanomethyl)-4-(2-fluoroprop-2-enoyl)piperazin-1-yl]-6,8-dihydro-5H-pyrido[3,4-d]pyrimidin-2-yl]oxymethyl]pyrrolidin-1-yl]propoxy]ethoxy]ethoxy]ethoxy]ethyl]-5-(2,5-difluorophenyl)-N-methyl-2-phenyl-1,3,4-thiadiazole-3-carboxamide]	1500 to 5000 nM	–	–	–	500 to 1500 nM	–	< 100 nM
C=C(F)C(=O)N1CCN(c2nc(OC[C@@H]3CCCN3CCCOCCOCCOCCOCCOCCOCCN(C)C(=O)N3N=C(c4cc(F)ccc4F)S[C@@]3(CCCN)c3ccccc3)nc3c2CCN(c2cccc4cccc(Cl)c24)C3)C[C@@H]1CC#N [Compound I-100, (2S)-2-(3-aminopropyl)-N-[2-[22[2-[2-[2-[2-[3-[(2S)-2-[[7-(8-chloro-1-naphthyl)-4-[(3S)-3-(cyanomethyl)-4-(2-fluoroprop-2-enoyl)piperazin-1-yl]-6,8-dihydro-5H-pyrido[3,4-d]pyrimidin-2-yl]oxymethyl]pyrrolidin-1-yl]propoxy]ethoxy]ethoxy]ethoxy]ethoxy]ethoxy]ethyl]-5-(2,5-difluorophenyl)-N-methyl-2-phenyl-1,3,4-thiadiazole-3-carboxamide]	> 5000 nM	–	–	–	1500 to 5000 nM	–	< 100 nM
C=C(F)C(=O)N1CCN(c2nc(OC[C@@H]3CCCN3CCCOCCOCCn3cc(CNc4cc(N5CCCC[C@H]5CCO)nc5c(CC)cnn45)ccc3=O)nc3c2CCN(c2cccc4cccc(Cl)c24)C3)C[C@@H]1CC#N [Compound I-87, 2-[(2S)-4-[7-(8-chloro-1-naphthyl)-2-[[(2S)-1-[3-[2-[2-[5-[[[3-ethyl-5-[(2S)-2-(2-hydroxyethyl)-1-piperidyl]pyrazolo[1,5-a]pyrimidin-7-yl]amino]methyl]-2-oxo-1-pyridyl]ethoxy]ethoxy]propyl]pyrrolidin-2-yl]methoxy]-6,8-dihydro-5H-pyrido[3,4-d]pyrimidin-4-yl]-1-(2-fluoroprop-2-enoyl)piperazin-2-yl]acetonitrile]	500 to 1500 nM	–	–	–	500 to 1500 nM	–	< 100 nM
CN(C/C=C/C(=O)N1CCN(c2nc(OC[C@@H]3CCCN3C)nc3c2CCN(c2cccc4cccc(Cl)c24)C3)C[C@@H]1CC#N)CCOCCOCCOCCOCCOCCOCCOCCOCCON(C)C(=O)N1N=C(c2cc(F)ccc2F)SC1(CCCN)c1ccccc1 (stereo partly shown) [Compound I-80]	500 to 1500 nM	–	–	–	< 500 nM	–	< 100 nM
CN(C/C=C/C(=O)N1CCN(c2nc(OC[C@@H]3CCCN3C)nc3c2CCN(c2cccc4cccc(Cl)c24)C3)C[C@@H]1CC#N)CCOCCOCCOCCOCCOCCOCCON(C)C(=O)N1N=C(c2cc(F)ccc2F)SC1(CCCN)c1ccccc1 (stereo partly shown) [Compound I-78]	500 to 1500 nM	–	–	–	< 500 nM	–	< 100 nM
